Experimental data as given in patent US20110189251A1, “COMPOUNDS AND COMPOSITIONS FOR THE CONTROL OF PESTS” (priority 2007, published 2011).

What was measured:
[1] = system: adult German cockroaches, Blattella germanica; assay: Insecticidal action, time-to-death of adult German cockroaches after 10 μL on the back; assay type: in vivo; details: regardless of male or female
Description: Material and Methods: Ten μL of either BioUD 10, pure 2-Undecanone, or Raid were separately applied to the backs (thorax and wings) of adult German cockroaches, Blattella germanica. Insects were separately placed into FLUON®-treated diet cups (Vol.=30 mL, lower diam.=3 cm, height=4 cm) to prevent escape of treated specimens.

[2] = system: Eastern subterranean termite, Reticulitermes flavipes; assay: Killing activity in termites, compound pipetted onto back; assay type: in vivo; details: adults, 1 μL

CCCCCCCCCC(C)=O [2-Undecanone, 2-undecanone]
speed of kill relative to the formulated product (BioUD10) [1]: ~2 ×
Time-to-death (sec), mean ([2]; castes w and s together): 171.5 s
Time-to-death ([2]; caste s, single insects): 146 s
